{
  "source": "patent US20190192485A1",
  "about": "“DOSAGE REGIMEN FOR THE TREATMENT OF ENDOMETRIOSIS” (MEREO BIOPHARMA 2 LIMITED, priority 2016, published 2019)",
  "key": {"[1]": {"assay": "Single 1.0 mg dose with combined oral contraceptive in premenopausal women (PK interaction, safety)", "experimental": "The study consisted of a 49-day screening period and four consecutive 28-day (menstrual) cycles.\nFor the combined oral contraceptive, 30 μg of ethinyl estradiol and 0.15 mg of levonorgestrel (Seasonique®) was used. Seasonique® is an oral contraceptive designed and approved for daily administration. The 84 blue-green tablets (30-μg ethinyl estradiol and 0.15 mg levonorgestrel) are packaged with seven yellow tablets containing 10-μg ethinyl estradiol to eliminate the hormone free interval."}, "[2]": {"assay": "Toxicologic studies in dogs: plasma exposure after single and weekly oral dosing", "type": "in vivo", "excerpt": "(§1) Generally, the inter-animal variability in Cmax levels was small."}, "testosterone levels": {"system": "testosterone levels", "assay": "Serum testosterone levels in male dogs after 1, 4 and 12 weeks of dosing", "type": "in vivo", "settings": "all dose levels", "excerpt": "as §1"}, "[3]": {"assay": "Tissue (fat) biopsy concentration versus plasma", "type": "in vivo", "settings": "human fat biopsies, read-out: concentration in tissue (fat) relative to plasma/blood"}, "[4]": {"assay": "Single ascending dose study in pre- and post-menopausal women: safety, tolerability and PK", "type": "in vivo, human", "settings": "for AUC(0-tlast) Mean / Cmax Mean / T1/2 Mean / Tmax Median: po", "excerpt": "The drug concentration in plasma and/or serum samples can be determined by a number of different ways, e.g. HPLC or LC-MS/MS analyses. […]\n(§2) A minimal toxic dose (MTD) was not reached. […] Table 3 presents the PK parameters based on analysis of the concentration-time profile obtained from this study."}, "[5]": {"system": "estrone, estrone sulfate and estradiol", "assay": "Single ascending dose study in women: PD (estrogen suppression)", "type": "in vivo, human", "excerpt": "as §2"}, "aromatase [6]": {"target": "T1, aromatase (Rattus norvegicus, UniProt P22443)", "T1 construct": "achieving medical castration in adult female rats; from tissue; host or cells: in vivo, adult female rats", "T1 sequence (P22443 1-508)": "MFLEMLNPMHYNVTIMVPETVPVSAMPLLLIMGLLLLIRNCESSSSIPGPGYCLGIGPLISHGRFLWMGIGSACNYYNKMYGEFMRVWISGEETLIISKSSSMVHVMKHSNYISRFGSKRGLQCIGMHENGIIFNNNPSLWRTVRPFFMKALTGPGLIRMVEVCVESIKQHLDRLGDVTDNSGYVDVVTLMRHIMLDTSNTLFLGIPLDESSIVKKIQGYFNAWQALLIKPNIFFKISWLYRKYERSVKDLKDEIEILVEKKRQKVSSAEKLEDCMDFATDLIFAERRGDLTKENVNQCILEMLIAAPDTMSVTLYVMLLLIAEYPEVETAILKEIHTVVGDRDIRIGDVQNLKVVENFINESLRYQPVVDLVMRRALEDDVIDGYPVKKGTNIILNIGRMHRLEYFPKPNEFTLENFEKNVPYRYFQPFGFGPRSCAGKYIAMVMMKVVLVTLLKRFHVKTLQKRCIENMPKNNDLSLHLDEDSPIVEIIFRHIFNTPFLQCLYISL", "settings": "once weekly administration, adult female rats; cited from earlier work"}, "aromatase [7]": {"target": "T2, aromatase (Homo sapiens, UniProt P11511)", "T2 construct": "high levels of aromatase in the adipose tissue; from tissue; host or cells: in vivo, human subjects (aromatase of adipose tissue)", "T2 sequence (P11511 1-503)": "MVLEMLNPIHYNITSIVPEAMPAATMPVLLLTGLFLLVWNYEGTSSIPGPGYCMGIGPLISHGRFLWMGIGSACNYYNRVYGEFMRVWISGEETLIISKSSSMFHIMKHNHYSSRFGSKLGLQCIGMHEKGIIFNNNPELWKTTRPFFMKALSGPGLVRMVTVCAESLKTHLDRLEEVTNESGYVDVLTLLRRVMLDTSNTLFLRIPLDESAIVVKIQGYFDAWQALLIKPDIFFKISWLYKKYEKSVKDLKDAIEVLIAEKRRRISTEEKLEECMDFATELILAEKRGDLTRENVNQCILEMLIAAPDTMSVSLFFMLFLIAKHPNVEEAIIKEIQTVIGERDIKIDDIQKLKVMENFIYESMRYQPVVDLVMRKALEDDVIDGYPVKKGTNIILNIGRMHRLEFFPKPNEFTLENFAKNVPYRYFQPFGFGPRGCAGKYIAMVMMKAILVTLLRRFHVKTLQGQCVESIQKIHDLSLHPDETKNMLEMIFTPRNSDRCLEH", "assay": "Low dose study in obese men with low testosterone, with PK/PD analyses of aromatase inhibition", "type": "in vivo"}, "aromatase [8]": {"target": "T2, aromatase", "settings": "microsomal fraction of human placenta; cited from earlier work"}, "[9]": {"settings": "female, human, in vivo, 0.01 mg"}, "[10]": {"settings": "female, human, in vivo, 0.03 mg"}},
  "data": [
    {"smiles": "N#Cc1ccc(C(F)(c2ccc(C#N)cc2)n2cncn2)cc1", "note": "[CGP47645, 4,4′-[fluoro-(1-H-1,2,4-triazol-1-yl)methylene]bisbenzonitrile]", "values": [
      {"measurement": "safety of co-administration with continuously dosed COC", "setting": "[1]; in vivo", "result": "may be co-administered safely"},
      {"measurement": "pharmacokinetic parameters with COC compared with single ascending dose study without COC", "setting": "[1]; in vivo, po", "result": "similar"},
      {"measurement": "difference in exposure (AUC and Cmax) between male and female dogs", "setting": "[2]; dogs", "result": "no consistent difference"},
      {"measurement": "drug accumulation", "setting": "[2]; dogs, weekly oral dosing for 4 or 22 weeks versus single dose", "result": "no drug accumulation"},
      {"measurement": "increase in exposure (AUC and Cmax) with dose", "setting": "[2]; male and female dogs, single and multiple doses, all dose levels", "result": "generally proportional to the dose increase"},
      {"measurement": "serum testosterone levels", "setting": "testosterone levels", "result": "dramatically elevated testosterone levels"},
      {"measurement": "Kp", "setting": "[3]", "result": "≤ 10"},
      {"measurement": "inter-subject variability", "setting": "[4]; female, human, in vivo", "result": "10-30%"},
      {"measurement": "Tmax", "setting": "[4]; female, human, in vivo, Tmax", "result": "0.5 to 2", "unit": "h"},
      {"measurement": "Tmax", "setting": "[4]; female, human, in vivo, median Tmax", "result": "≤ 1", "unit": "h"},
      {"measurement": "AUC(0-tlast) Mean", "setting": "[4]; [9]", "result": 1.4, "unit": "ng·h/mL"},
      {"measurement": "Cmax Mean", "setting": "[4]; [9]", "result": 0.2, "unit": "ng/mL"},
      {"measurement": "T1/2 Mean", "setting": "[4]; [9]", "result": 55.2, "unit": "h"},
      {"measurement": "Tmax Median", "setting": "[4]; [9]", "result": 1, "unit": "h"},
      {"measurement": "AUC(0-tlast) Mean", "setting": "[4]; [10]", "result": 24.1, "unit": "ng·h/mL"},
      {"measurement": "Cmax Mean", "setting": "[4]; [10]", "result": 0.4, "unit": "ng/mL"},
      {"measurement": "T1/2 Mean", "setting": "[4]; [10]", "result": 396, "unit": "h"},
      {"measurement": "AUC(0-tlast) Mean", "setting": "[4]; female, human, in vivo, 0.1 mg", "result": 116.2, "unit": "ng·h/mL"},
      {"measurement": "Cmax Mean", "setting": "[4]; female, human, in vivo, 0.1 mg", "result": 1.7, "unit": "ng/mL"},
      {"measurement": "T1/2 Mean", "setting": "[4]; female, human, in vivo, 0.1 mg", "result": 564, "unit": "h"},
      {"measurement": "Tmax Median", "setting": "[4]; female, human, in vivo, 0.1 mg", "result": 1, "unit": "h"},
      {"measurement": "Tmax Median", "setting": "[4]; female, human, in vivo, 0.3 mg", "result": 1, "unit": "h"},
      {"measurement": "Tmax Median", "setting": "[4]; female, human, in vivo, 1 mg", "result": 1, "unit": "h"},
      {"measurement": "Tmax Median", "setting": "[4]; female, human, in vivo, 3 mg", "result": 1, "unit": "h"},
      {"measurement": "dose dependence of half-life", "setting": "[4]; human, in vivo", "result": "directly dose dependent"},
      {"measurement": "dose proportionality of Cmax and AUC", "setting": "[4]; human, in vivo", "result": "increased in a dose-proportional manner"},
      {"measurement": "difference in pharmacokinetics between post- and pre-menopausal women", "setting": "[4]; in vivo", "result": "No differences"},
      {"measurement": "minimal toxic dose (MTD)", "setting": "[4]; single doses 0.01 mg through 20 mg, post-menopausal women", "result": "not reached"},
      {"measurement": "lowest single dose at which maximal estrogen suppression was observed", "setting": "[5]; post-menopausal women, chemiluminescence or radioimmunoassay", "result": 0.1, "unit": "mg"},
      {"measurement": "lowest single dose at which transient estrogen suppression was seen", "setting": "[5]; postmenopausal women", "result": 0.01, "unit": "mg"},
      {"measurement": "estrone suppression compared with letrozole", "setting": "[5]; postmenopausal women, doses of 0.1 mg and 0.3 mg", "result": "at least equal to letrozole"},
      {"measurement": "inhibition of estrone, estrone sulfate and estradiol", "setting": "[5]; women, single ascending doses", "result": "dose-dependent inhibition"},
      {"measurement": "effective dose achieving medical castration", "setting": "aromatase [6]", "result": 3, "unit": "mg/kg"},
      {"measurement": "average estimated IC40 for aromatase inhibition", "setting": "aromatase [7]; PK/PD analyses, plasma concentration", "result": 0.03, "unit": "ng/mL"},
      {"measurement": "IC90", "setting": "aromatase [7]; PK/PD analyses, plasma concentration, read-out: average estimated IC90 for aromatase inhibition", "result": 0.27, "unit": "ng/mL"},
      {"measurement": "lowest dose with effects on the aromatase-testosterone-estradiol pathway", "setting": "aromatase [7]; females and males with obesity-associated hypogonadotropic hypogonadism, blood levels below IC50", "result": 0.003, "unit": "mg"},
      {"measurement": "mode of aromatase inhibition", "setting": "aromatase [8]", "result": "competitive inhibitor"}
    ]},
    {"smiles": "C#C[C@]1(O)CC[C@H]2[C@@H]3CCC4=CC(=O)CC[C@@H]4[C@H]3CC[C@@]21CC", "note": "[levonorgestrel, reference compound]", "values": [
      {"measurement": "steady state pharmacokinetic profile with 1 mg CGP47645 versus placebo", "setting": "[1]; Day 29, surgically sterile healthy premenopausal women, COC 30 μg ethinyl estradiol and 0.15 mg levonorgestrel", "result": "similar"}
    ]}
  ]
}
